Test results: PubChem BioAssay AID330 (DTP/NCI, 2004)
“And” between values parts separate entries of the source, which are not always exact repeats. Equal entries are not always repeated. Inconclusive results and toxic doses are left out. Square brackets hold non-standard residues; d marks the D form. Peptide text beside a SMILES is read from it. Tyr(3-NO2) = N[CH](Cc1ccc(O)c([N+](=O)[O-])c1)C(=O)O

Test system: P388 leukemia ip, CD2F1 mice, survival T/C
Assay: NCI In Vivo Anticancer Drug Screen. Data for tumor model P388 Leukemia (intraperitoneal) in CD2F1 (CDF1) mice
Settings: endpoint: median survival time, higher = longer survival
How it was run: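 Mice carrying the transplanted tumor received test compound or vehicle. Survival was recorded in each group, and the value is the treated-group measurement divided by that of the vehicle-treated control group.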

[1] = dose: 50.0 mg/kg/injection, schedule: Q01DX005 (ip), vehicle: Klucel (hydroxypropylcellulose) (HPC)
[2] = dose: 100.0 mg/kg/injection, schedule: Q01DX005 (ip), vehicle: Klucel (hydroxypropylcellulose) (HPC)
[3] = dose: 200.0 mg/kg/injection, schedule: Q01DX005 (ip), vehicle: Klucel (hydroxypropylcellulose) (HPC)
[4] = dose: 60.0 mg/kg/injection, schedule: Q01DX005 (ip), vehicle: saline with Tween-80
[5] = dose: 120.0 mg/kg/injection, schedule: Q01DX005 (ip), vehicle: saline with Tween-80
[6] = dose: 60.0 mg/kg/injection, schedule: Q01DX005 (ip), vehicle: Klucel (hydroxypropylcellulose) (HPC)
[7] = dose: 120.0 mg/kg/injection, schedule: Q01DX005 (ip), vehicle: Klucel (hydroxypropylcellulose) (HPC)
[8] = dose: 240.0 mg/kg/injection, schedule: Q01DX005 (ip), vehicle: Klucel (hydroxypropylcellulose) (HPC)
[9] = dose: 6.25 mg/kg/injection, schedule: Q01DX009 (ip), vehicle: saline with Tween-80
[10] = dose: 12.5 mg/kg/injection, schedule: Q01DX009 (ip), vehicle: saline with Tween-80
[11] = dose: 50.0 mg/kg/injection, schedule: Q01DX009 (ip), vehicle: saline
[12] = dose: 100.0 mg/kg/injection, schedule: Q04DX003 (ip), vehicle: saline with Tween-80
[13] = dose: 200.0 mg/kg/injection, schedule: Q04DX003 (ip), vehicle: saline with Tween-80
[14] = dose: 400.0 mg/kg/injection, schedule: Q04DX003 (ip), vehicle: saline with Tween-80
[15] = dose: 50.0 mg/kg/injection, schedule: Q01DX005 (ip), vehicle: saline with Tween-80
[16] = dose: 100.0 mg/kg/injection, schedule: Q01DX005 (ip), vehicle: saline with Tween-80
[17] = dose: 12.5 mg/kg/injection, schedule: Q01DX005 (ip), vehicle: saline with Tween-80
[18] = dose: 25.0 mg/kg/injection, schedule: Q01DX005 (ip), vehicle: saline with Tween-80

CN(C(=O)c1cc2c(cc1Br)OCO2)c1ccccc1
T/C (dose: 25.0 mg/kg/injection, schedule: Q01DX009 (ip), vehicle: other): 100 % of control
T/C (dose: 50.0 mg/kg/injection, schedule: Q01DX009 (ip), vehicle: other): 98 % of control
T/C (dose: 100.0 mg/kg/injection, schedule: Q01DX009 (ip), vehicle: other): 111 % of control

O=C1c2ccccc2-c2nsc3c(C(Br)Br)ccc1c23
T/C [1]: 99 % of control
T/C [2]: 87 % of control
T/C [3]: 91 % of control

O=C1c2cccnc2-c2ncccc21
T/C [4]: 93 % of control
T/C [5]: 91 % of control

O=C1CCC(C(=O)N(C(=O)NC2CCCCC2)C2CCCCC2)Cc2ccccc21 (centres undefined)
T/C [6]: 98 % of control
T/C [7]: 92 % of control
T/C [8]: 90 % of control

O=c1[nH]cnc2nn(C3OC(CO)C(O)C3O)cc12 (centres undefined)
T/C (dose: 0.39 mg/kg/injection, schedule: Q01DX009 (ip), vehicle: saline with Tween-80): 104 % of control and 117 % of control
T/C (dose: 0.78 mg/kg/injection, schedule: Q01DX009 (ip), vehicle: saline with Tween-80): 104 % of control and 116 % of control
T/C (dose: 1.56 mg/kg/injection, schedule: Q01DX009 (ip), vehicle: saline with Tween-80): 107 % of control
T/C (dose: 3.12 mg/kg/injection, schedule: Q01DX009 (ip), vehicle: saline with Tween-80): 93 % of control
T/C [9]: 93 % of control
T/C [10]: 101 % of control
T/C (dose: 25.0 mg/kg/injection, schedule: Q01DX009 (ip), vehicle: saline with Tween-80): 96 % of control
T/C (dose: 50.0 mg/kg/injection, schedule: Q01DX009 (ip), vehicle: saline with Tween-80): 104 % of control

COc1ccc(CCNCC(O)CO/N=C(\C)c2ccc(N(C)C)cc2)cc1OC (centres undefined)
T/C [6]: 104 % of control
T/C [7]: 101 % of control
T/C [8]: 97 % of control

O=C1C(c2ccccn2)=C(O)c2ccccc21
T/C [1]: 104 % of control
T/C [2]: 93 % of control
T/C [3]: 97 % of control

c1ccc2c(CC3=NCCN3)noc2c1
T/C (dose: 12.5 mg/kg/injection, schedule: Q01DX009 (ip), vehicle: saline): 98 % of control
T/C (dose: 25.0 mg/kg/injection, schedule: Q01DX009 (ip), vehicle: saline): 105 % of control
T/C [11]: 103 % of control and 107 % of control

CN1C(=O)c2c(ccc3c2OCO3)[C@@]2(C)C(=O)Cc3cc4c(cc3[C@H]12)OCO4
T/C (dose: 6.25 mg/kg/injection, schedule: Q01DX005 (ip), vehicle: Klucel (hydroxypropylcellulose) (HPC)): 89 % of control
T/C (dose: 12.5 mg/kg/injection, schedule: Q01DX005 (ip), vehicle: Klucel (hydroxypropylcellulose) (HPC)): 88 % of control

CCN(CCN1C(=O)COCC1=O)c1ccccc1
T/C [12]: 105 % of control
T/C [13]: 104 % of control
T/C [14]: 96 % of control

COc1ccc(C2OC3=C(Nc4ccc([N+](=O)[O-])cc4N3)C2=O)cc1OC (centres undefined)
T/C [6]: 89 % of control
T/C [7]: 93 % of control
T/C [8]: 89 % of control

[CH3][Sn]([CH3])([O]C(=O)c1ccccc1)[O]C(=O)c1ccccc1
T/C [1]: 107 % of control
T/C [2]: 108 % of control

Cc1ccnc(NCc2ccccn2)c1
T/C [15]: 105 % of control
T/C [16]: 102 % of control

CCOC1(OCC)Cc2nc3ccccc3cc21
T/C (dose: 50.0 mg/kg/injection, schedule: Q01DX005 (ip), vehicle: saline + Tween-80 + alcohol): 106 % of control
T/C (dose: 100.0 mg/kg/injection, schedule: Q01DX005 (ip), vehicle: saline + Tween-80 + alcohol): 109 % of control
T/C (dose: 200.0 mg/kg/injection, schedule: Q01DX005 (ip), vehicle: saline + Tween-80 + alcohol): 106 % of control

O=c1ccnc(Sc2ccc([N+](=O)[O-])cc2[N+](=O)[O-])[nH]1
T/C [12]: 99 % of control
T/C [13]: 99 % of control

COc1cc(N=C=S)ccc1NC(=O)c1cc(Br)cc(Br)c1O
T/C (dose: 100.0 mg/kg/injection, schedule: Q01DX001 (ip), vehicle: Klucel (hydroxypropylcellulose) (HPC)): 106 % of control
T/C (dose: 200.0 mg/kg/injection, schedule: Q01DX001 (ip), vehicle: Klucel (hydroxypropylcellulose) (HPC)): 101 % of control
T/C (dose: 400.0 mg/kg/injection, schedule: Q01DX001 (ip), vehicle: Klucel (hydroxypropylcellulose) (HPC)): 106 % of control

O=C(O)C1CCCN1 (centres undefined)
T/C [11]: 98 % of control
T/C (dose: 100.0 mg/kg/injection, schedule: Q01DX009 (ip), vehicle: saline): 100 % of control
T/C (dose: 200.0 mg/kg/injection, schedule: Q01DX009 (ip), vehicle: saline): 100 % of control

c1ccc(C2SCC3COCN32)cc1 (centres undefined)
T/C [12]: 97 % of control
T/C [13]: 101 % of control
T/C [14]: 100 % of control

O=C(N/N=C/C(O)C(O)C(O)C(O)C(=O)O)c1ccncc1 (centres undefined)
T/C (dose: 50.0 mg/kg/injection, schedule: Q01DX005 (ip), vehicle: saline): 99 % of control
T/C (dose: 100.0 mg/kg/injection, schedule: Q01DX005 (ip), vehicle: saline): 93 % of control
T/C (dose: 200.0 mg/kg/injection, schedule: Q01DX005 (ip), vehicle: saline): 100 % of control

C=CC(C)(C)C1Oc2cc(O)ccc2C(=O)C1c1ccc(OC)c(OC)c1O (centres undefined)
T/C (dose: 100.0 mg/kg/injection, schedule: Q04DX003 (ip), vehicle: Klucel (hydroxypropylcellulose) (HPC)): 92 % of control
T/C (dose: 200.0 mg/kg/injection, schedule: Q04DX003 (ip), vehicle: Klucel (hydroxypropylcellulose) (HPC)): 100 % of control
T/C (dose: 400.0 mg/kg/injection, schedule: Q04DX003 (ip), vehicle: Klucel (hydroxypropylcellulose) (HPC)): 92 % of control

CCOC(=O)/C(C#N)=C/N1CCCC1
T/C (dose: 6.25 mg/kg/injection, schedule: Q01DX005 (ip), vehicle: saline with Tween-80): 107 % of control
T/C [17]: 96 % of control
T/C [18]: 104 % of control

NC(=O)C(Cc1ccc(O)c([N+](=O)[O-])c1)NC(=O)C(N)Cc1ccccc1 (centres undefined) (H-Phe-[Tyr(3-NO2)]-NH2; configuration not given here)
T/C [1]: 103 % of control
T/C [2]: 96 % of control
T/C [3]: 96 % of control

O=S(=O)(/N=C1/c2ccccc2/C(=N/S(=O)(=O)c2ccccc2)C2CC=CCC12)c1ccccc1 (centres undefined)
T/C (dose: 6.25 mg/kg/injection, schedule: Q01DX001 (ip), vehicle: saline with Tween-80): 100 % of control
T/C (dose: 12.5 mg/kg/injection, schedule: Q01DX001 (ip), vehicle: saline with Tween-80): 95 % of control
T/C (dose: 25.0 mg/kg/injection, schedule: Q01DX001 (ip), vehicle: saline with Tween-80): 100 % of control

C=CCC1(OC(C)=O)CC2C(=O)C(=O)C(C1)N2OC(=O)c1ccccc1 (centres undefined)
T/C [1]: 100 % of control
T/C [2]: 87 % of control
T/C [3]: 94 % of control

CCOC(=O)C1=C(C(=O)c2ccc(C)cc2)C(c2cccc([N+](=O)[O-])c2)C(C(=O)c2ccc(C)cc2)=C(C(=O)OCC)N1
T/C [4]: 103 % of control
T/C [5]: 93 % of control
T/C (dose: 240.0 mg/kg/injection, schedule: Q01DX005 (ip), vehicle: saline with Tween-80): 111 % of control

O=[N+]([O-])c1ccc(S(=O)(=O)c2ccc(Nc3ccnc4cc(Cl)ccc34)cc2)cc1
T/C [1]: 98 % of control
T/C [2]: 91 % of control
T/C [3]: 90 % of control

Cc1cc(N(CC(C)Br)CC(C)Br)ccc1N=Nc1ccccc1C(=O)O (centres undefined)
T/C [9]: 196 % of control
T/C [10]: 108 % of control
T/C (dose: 12.5 mg/kg/injection, schedule: Q01DX009 (oral), vehicle: saline with Tween-80): 115 % of control
T/C (dose: 50.0 mg/kg/injection, schedule: Q01DX009 (oral), vehicle: saline with Tween-80): 157 % of control
T/C (dose: 100.0 mg/kg/injection, schedule: Q01DX009 (oral), vehicle: saline with Tween-80): 89 % of control

N=c1c2ccccc2nc2n1CCCCC2
T/C (dose: 25.0 mg/kg/injection, schedule: Q04DX003 (ip), vehicle: saline): 103 % of control
T/C (dose: 50.0 mg/kg/injection, schedule: Q04DX003 (ip), vehicle: saline): 95 % of control

Cc1cccc2sc(NC(=O)Nc3cccc(F)c3)nc12
T/C [17]: 93 % of control and 94 % of control
T/C [18]: 100 % of control and 96 % of control
T/C [15]: 94 % of control and 96 % of control
T/C [16]: 104 % of control and 89 % of control
